Values after ≈ are worked out from the molar mass of the structure shown.
Legend:
Assay type in all cases: cell-based
[1] = tested on: Candida albicans IAM 4905; test: Antifungal activity, agar-dilution MIC, organism No. 29; settings: Candida albicans, IAM4905; Organism No. 29, bouillon-agar; read-out: Minimum Inhibitory Concentration
Outline: (§1)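 Specimen is incorporated into bouillon-agar medium at graded levels and the organisms are tested on these plates. The lowest level preventing growth is taken as the MIC (μg/ml of medium).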

[2] = tested on: Proteus rettgeri IFO 3850; test: Antibacterial activity, agar-dilution MIC, organism No. 22; settings: Providencia rettgeri, IFO3850; Organism No. 22, bouillon-agar; read-out: Minimum Inhibitory Concentration
Outline: as §1

[3] = tested on: Salmonella paratyphi-A 1015; test: Antibacterial activity, agar-dilution MIC, organism No. 10; settings: Salmonella enterica, PARATYPHI, read-out: Minimum Inhibitory Concentration
Outline: as §1

Proteus vulgaris HX-19 = test: Antibacterial activity, agar-dilution MIC, organism No. 21; settings: Proteus vulgaris, HX19; Organism No. 21, bouillon-agar; read-out: Minimum Inhibitory Concentration
Outline: as §1

[4] = tested on: Staphylococcus aureus Terajima; test: Antibacterial activity, agar-dilution MIC, organism No. 2; settings: Staphylococcus aureus; Organism No. 2, bouillon-agar; read-out: Minimum Inhibitory Concentration
Outline: as §1

Enterobacter cloacae 963 = test: Antibacterial activity, agar-dilution MIC, organism No. 24; settings: Enterobacter cloacae, 963; Organism No. 24, bouillon-agar; read-out: Minimum Inhibitory Concentration
Outline: as §1

[5] = tested on: Aspergillus niger IFO 6342; test: Antifungal activity, agar-dilution MIC, organism No. 30; settings: Aspergillus niger, IFO6342; Organism No. 30, bouillon-agar; read-out: Minimum Inhibitory Concentration
Outline: as §1

Proteus vulgaris OX-19 = test: Antibacterial activity, agar-dilution MIC, organism No. 20; settings: Proteus vulgaris, OX19; Organism No. 20, bouillon-agar; read-out: Minimum Inhibitory Concentration
Outline: as §1

[6] = tested on: Proteus mirabilis IFO 3849; test: Antibacterial activity, agar-dilution MIC, organism No. 19; settings: Proteus mirabilis, IFO3849; Organism No. 19, bouillon-agar; read-out: Minimum Inhibitory Concentration
Outline: as §1

[7] = tested on: Salmonella shottmuelleri 8006; test: Antibacterial activity, agar-dilution MIC, organism No. 11; settings: Salmonella, 8006; Organism No. 11, bouillon-agar; read-out: Minimum Inhibitory Concentration
Outline: as §1

[8] = tested on: Streptococcus pyogenes Cook; test: Antibacterial activity, agar-dilution MIC, organism No. 4; settings: Streptococcus pyogenes; Organism No. 4, bouillon-agar; read-out: Minimum Inhibitory Concentration
Outline: as §1

Salmonella typhi 901 = test: Antibacterial activity, agar-dilution MIC, organism No. 9; settings: Salmonella enterica, TYPHI, read-out: Minimum Inhibitory Concentration
Outline: as §1

[9] = tested on: Micrococcus luteus ATCC 9341; test: Antibacterial activity, agar-dilution MIC, organism No. 25; settings: Micrococcus luteus, ATCC9341; Organism No. 25, bouillon-agar; read-out: Minimum Inhibitory Concentration
Outline: as §1

[10] = tested on: Pseudomonas aeruginosa IFO 3445; test: Antibacterial activity, agar-dilution MIC, organism No. 15; settings: Pseudomonas aeruginosa, IFO3445; Organism No. 15, bouillon-agar; read-out: Minimum Inhibitory Concentration
Outline: as §1

[11] = tested on: Staphylococcus aureus FDA 209PJc-1; test: Antibacterial activity, agar-dilution MIC, organism No. 1; settings: Staphylococcus aureus, FDA209PJC1; Organism No. 1, bouillon-agar; read-out: Minimum Inhibitory Concentration
Outline: as §1

[12] = tested on: Pseudomonas aeruginosa PAO 1; test: Antibacterial activity, agar-dilution MIC, organism No. 17; settings: Pseudomonas aeruginosa, PAO1; Organism No. 17, bouillon-agar; read-out: Minimum Inhibitory Concentration
Outline: as §1

[13] = tested on: Staphylococcus aureus MS 353; test: Antibacterial activity, agar-dilution MIC, organism No. 3; settings: Staphylococcus aureus, MS353; Organism No. 3, bouillon-agar; read-out: Minimum Inhibitory Concentration
Outline: as §1

[14] = tested on: Bacillus subtilis ATCC 6633; test: Antibacterial activity, agar-dilution MIC, organism No. 14; settings: Bacillus subtilis, ATCC6633; Organism No. 14, bouillon-agar; read-out: Minimum Inhibitory Concentration
Outline: as §1

[15] = tested on: Enterobacter aerogenes ATCC 13048; test: Antibacterial activity, agar-dilution MIC, organism No. 23; settings: Klebsiella aerogenes, ATCC13048; Organism No. 23, bouillon-agar; read-out: Minimum Inhibitory Concentration
Outline: as §1

[16] = tested on: Pseudomonas aeruginosa NCTC 10490; test: Antibacterial activity, agar-dilution MIC, organism No. 16; settings: Pseudomonas aeruginosa, NCTC10490; Organism No. 16, bouillon-agar; read-out: Minimum Inhibitory Concentration
Outline: as §1

[17] = tested on: Salmonella enteritidis G 14; test: Antibacterial activity, agar-dilution MIC, organism No. 12; settings: Salmonella enterica, ENTERITIDIS; Organism No. 12, bouillon-agar; read-out: Minimum Inhibitory Concentration
Outline: as §1

[18] = tested on: Klebsiella pneumoniae PCI-602; test: Antibacterial activity, agar-dilution MIC, organism No. 7; settings: Klebsiella pneumoniae, PCI602; Organism No. 7, bouillon-agar; read-out: Minimum Inhibitory Concentration
Outline: as §1

[19] = tested on: Escherichia coli NIHJ-JC-2; test: Antibacterial activity, agar-dilution MIC, organism No. 5; settings: Escherichia coli, NIHJJC2; Organism No. 5, bouillon-agar; read-out: Minimum Inhibitory Concentration
Outline: as §1

[20] = tested on: Escherichia coli K12 C600 IAM 1264; test: Antibacterial activity, agar-dilution MIC, organism No. 6; settings: Escherichia coli, IAM1264; Organism No. 6, bouillon-agar; read-out: Minimum Inhibitory Concentration
Outline: as §1

[21] = tested on: Salmonella typhimurium IID 971; test: Antibacterial activity, agar-dilution MIC, organism No. 8; settings: Salmonella enterica; Organism No. 8, bouillon-agar; read-out: Minimum Inhibitory Concentration
Outline: as §1

[22] = tested on: Proteus morganii IFO 3848; test: Antibacterial activity, agar-dilution MIC, organism No. 18; settings: Morganella morganii, IFO3848; Organism No. 18, bouillon-agar; read-out: Minimum Inhibitory Concentration
Outline: as §1

[23] = tested on: Serratia marcescens IAM 1184; test: Antibacterial activity, agar-dilution MIC, organism No. 13; settings: Serratia marcescens, IAM1184; Organism No. 13, bouillon-agar; read-out: Minimum Inhibitory Concentration
Excerpt: Agar-dilution method was used for determination of the antibacterial activity and antifungal activity while using bouillon-agar culture medium, and the minimum inhibitory concentration of the specimen was expressed by μg/ml of the culture medium.

[24] = tested on: Streptococcus pyogenes IFO 3340; test: Antibacterial activity, agar-dilution MIC, organism No. 26; settings: Streptococcus pyogenes, IFO3340; Organism No. 26, bouillon-agar; read-out: Minimum Inhibitory Concentration
Outline: as §1

Compound | MIC [1] | MIC [2] | MIC [3] | MIC (Proteus vulgaris HX-19) | MIC [4] | MIC (Enterobacter cloacae 963) | MIC [5] | MIC (Proteus vulgaris OX-19) | MIC [6] | MIC [7] | MIC [8] | MIC (Salmonella typhi 901) | MIC [9] | MIC [10] | MIC [11] | MIC [12] | MIC [13] | MIC [14] | MIC [15] | MIC [16] | further results
[C-]#[N+]C12CC3(/C=C/C(=O)Nc4ccc(OCCC)cc4)OC3C1O2 (stereo not shown) [compound 73] | 12.5 µg/mL (≈ 38.3 µM) | > 200 µg/mL | 0.39 µg/mL (≈ 1.2 µM) | 0.78 µg/mL (≈ 2.39 µM) | 1.56 µg/mL (≈ 4.78 µM) | > 200 µg/mL | 12.5 µg/mL (≈ 38.3 µM) | 1.56 µg/mL (≈ 4.78 µM) | > 200 µg/mL | 1.56 µg/mL (≈ 4.78 µM) | 100 µg/mL (≈ 306 µM) | 50 µg/mL (≈ 153 µM) | 1.56 µg/mL (≈ 4.78 µM) | > 200 µg/mL | 0.78 µg/mL (≈ 2.39 µM) | > 200 µg/mL | 1.56 µg/mL (≈ 4.78 µM) | 12.5 µg/mL (≈ 38.3 µM) | > 200 µg/mL | > 200 µg/mL | MIC [17]: > 200 µg/mL; MIC [18]: 1.56 µg/mL (≈ 4.78 µM); MIC [19]: > 200 µg/mL; MIC [20]: > 200 µg/mL; MIC [21]: > 200 µg/mL; MIC [22]: 12.5 µg/mL (≈ 38.3 µM); MIC [23]: > 200 µg/mL; MIC [24]: 1.56 µg/mL (≈ 4.78 µM)
[C-]#[N+]C12CC3(/C=C/C(=O)Nc4nc5ccccc5s4)OC3C1O2 (stereo not shown) [compound 70] | 1.56 µg/mL (≈ 4.79 µM) | > 200 µg/mL | 3.13 µg/mL (≈ 9.62 µM) | 1.56 µg/mL (≈ 4.79 µM) | 0.78 µg/mL (≈ 2.4 µM) | > 200 µg/mL | 6.25 µg/mL (≈ 19.2 µM) | 1.56 µg/mL (≈ 4.79 µM) | > 200 µg/mL | > 200 µg/mL | 1.56 µg/mL (≈ 4.79 µM) | > 200 µg/mL | > 200 µg/mL | > 200 µg/mL | 0.39 µg/mL (≈ 1.2 µM) | > 200 µg/mL | 0.39 µg/mL (≈ 1.2 µM) | 3.13 µg/mL (≈ 9.62 µM) | > 200 µg/mL | > 200 µg/mL | MIC [17]: > 200 µg/mL; MIC [18]: 1.56 µg/mL (≈ 4.79 µM); MIC [19]: > 200 µg/mL; MIC [20]: > 200 µg/mL; MIC [21]: > 200 µg/mL; MIC [22]: 6.25 µg/mL (≈ 19.2 µM); MIC [23]: > 200 µg/mL
[C-]#[N+]C12CC3(/C=C/C(=O)Nc4nnc(C)s4)OC3C1O2 (stereo not shown) [compound 71] | 12.5 µg/mL (≈ 43.1 µM) | > 200 µg/mL | 12.5 µg/mL (≈ 43.1 µM) | 6.25 µg/mL (≈ 21.5 µM) | 12.5 µg/mL (≈ 43.1 µM) | > 200 µg/mL | 200 µg/mL (≈ 689 µM) | 6.25 µg/mL (≈ 21.5 µM) | > 200 µg/mL | 100 µg/mL (≈ 344 µM) | 12.5 µg/mL (≈ 43.1 µM) | 25 µg/mL (≈ 86.1 µM) | > 200 µg/mL | > 200 µg/mL | 1.56 µg/mL (≈ 5.37 µM) | > 200 µg/mL | 6.25 µg/mL (≈ 21.5 µM) | > 200 µg/mL | > 200 µg/mL | > 200 µg/mL | MIC [17]: 200 µg/mL (≈ 689 µM); MIC [18]: > 200 µg/mL; MIC [19]: > 200 µg/mL; MIC [20]: > 200 µg/mL; MIC [21]: > 200 µg/mL; MIC [22]: 12.5 µg/mL (≈ 43.1 µM); MIC [23]: > 200 µg/mL
